The target of one data set is T1, acid ceramidase (hACR) (Homo sapiens, UniProt Q13510).
T1 construct: expressed in transfected cells
T1 sequence (Q13510 22-395): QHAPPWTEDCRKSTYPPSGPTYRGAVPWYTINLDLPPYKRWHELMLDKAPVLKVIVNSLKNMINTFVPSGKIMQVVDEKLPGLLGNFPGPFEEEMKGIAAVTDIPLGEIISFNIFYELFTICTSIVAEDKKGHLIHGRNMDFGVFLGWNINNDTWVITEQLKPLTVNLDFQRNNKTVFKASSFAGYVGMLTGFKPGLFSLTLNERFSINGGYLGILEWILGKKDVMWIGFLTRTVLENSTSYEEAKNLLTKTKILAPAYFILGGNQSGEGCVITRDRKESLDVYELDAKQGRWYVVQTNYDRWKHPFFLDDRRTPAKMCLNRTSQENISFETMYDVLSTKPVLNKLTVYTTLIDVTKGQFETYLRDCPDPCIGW
In words: Acid ceramidase inhibition, biochemical fluorescent assay with cell lysates overexpressing acid ceramidase (substrate Rbm14-12). The conditions noted are these: cell lysate, 1 hr preincubation at RT, pH 4.5, Rbm14-12 6.3 μM; read-out: IC50 hACR. The method, then: The ability of exemplary compounds to inhibit acid ceramidase was measured.
Cell lysates overexpressing acid ceramidase were used as the enzyme source for compound potency determination in a biochemical fluorescent assay. Briefly, compounds were preincubated with 10 μg protein of cell lysates in a dose-response manner for 1 hr at RT in the assay buffer containing 25 mM NaAC and 100 mM NaCl, pH 4.5. […] The samples were incubated with the stopping buffer at RT for 1 hr to allow the fluorescent product to be formed. […] Data were collected and used to determine the IC50 values of compounds by curve fitting to the four-parameter inhibition equation.

A short description of data set [1]: Compound solubility in water. The data set is classed as physicochemical.

The pIC50 is the IC50 on a negative log10 scale, so that one unit is a factor of ten. For orientation: solubility means how much of the substance goes into solution per volume. Read a high solubility as a readily soluble substance.

pIC50: −log10 of the molar value. In brackets after ≈: the same amount, converted by molar mass. Some results are limits rather than exact numbers.

Consider `CSc1nc(C(C)(C)C)cn1C(=O)NCCC(C)C` [Example 80, 4-(tert-Butyl)-N-iso-pentyl-2-(methylthio)-1H-imidazole-1-carboxamide], for which the pIC50 on acid ceramidase (hACR) was more than 6.70. This compound also had a solubility in data set [1] of 0.2 µg/mL (≈ 0.706 µM).

Consider `Cc1cn(C(=O)NCCCC(F)(F)F)c(OCCN2CCN(C)CC2)n1` [Example 198, 4-Methyl-2-(2-(4-methylpiperazin-1-yl)ethoxy)-N-(4,4,4-trifluorobutyl)-1H-imidazole-1-carboxamide], for which the pIC50 at acid ceramidase (hACR) is 6.00 to 6.70. Further, the concentration in solution in data set [1] (solubility) came to 38 µg/mL (≈ 101 µM).

As for `CC(C)CNC(=O)n1cc(C(C)(C)C)nc1OC(C)C` [Example 107, 4-(tert-Butyl)-N-iso-butyl-2-iso-propoxy-1H-imidazole-1-carboxamide], the pIC50 at acid ceramidase (hACR) is 6.00 to 6.70. The compound also had a solubility in data set [1] of 7 µg/mL (≈ 24.9 µM).

For `COc1nc(Cl)cn1C(=O)NCCC1CCCC1(F)F` (stereo not drawn) [Example 185, 4-Chloro-N-(2-(2,2-difluorocyclopentyl)ethyl)-2-methoxy-1H-imidazole-1-carboxamide], the pIC50 on acid ceramidase (hACR) is more than 6.70. The solubility in data set [1] was 29 µg/mL (≈ 94.2 µM).

`CC(CCNC(=O)n1cnc(-c2cccnc2)c1)c1ccccc1` (stereo not drawn) [Example 16, N-(3-Phenylbutyl)-4-(pyridin-3-yl)-1H-imidazole-1-carboxamide]: the negative logarithm of the IC50 (pIC50) on acid ceramidase (hACR) was more than 6.70. Further, the solubility in data set [1] came to 3.8 µg/mL (≈ 11.9 µM).

In the case of `O=C(NC1CCCCC1)n1cnc(-c2cccnc2)c1` [Example 61, N-Cyclohexyl-4-(pyridin-3-yl)-1H-imidazole-1-carboxamide], the pIC50 on acid ceramidase (hACR) was less than 6.00. In data set [1], this compound returned a solubility of 23 µg/mL (≈ 85.1 µM).

For `COc1nc(C)cn1C(=O)NCCCOc1ccccc1` [Example 144, 2-Methoxy-4-methyl-N-(3-phenoxypropyl)-1H-imidazole-1-carboxamide], on acid ceramidase (hACR), the pIC50 is more than 6.70. The amount in solution in data set [1] (solubility) came to 26 µg/mL (≈ 89.9 µM).

Take `COc1nc(C2CCCO2)cn1C(=O)NCCC(C)C` (stereo not drawn) [Example 84, N-iso-pentyl-2-methoxy-4-(tetrahydrofuran-2-yl)-1H-imidazole-1-carboxamide]: the negative logarithm of the IC50 (pIC50) at acid ceramidase (hACR) is less than 6.00. In data set [1], this compound displayed a solubility of 25 µg/mL (≈ 88.9 µM).

Turning to `Cc1cn(C(=O)NC2CC2)c(Oc2ccccc2)n1` [Example 147, N-Cyclopropyl-4-methyl-2-phenoxy-1H-imidazole-1-carboxamide], at acid ceramidase (hACR), the negative logarithm of the IC50 (pIC50) is more than 6.70. For the same compound, in data set [1], the concentration in solution (solubility) came to 29 µg/mL (≈ 113 µM).

On to `CC(C)CCNC(=O)n1cnc(-c2nccs2)c1` [Example 50, N-iso-Pentyl-4-(thiazol-2-yl)-1H-imidazole-1-carboxamide], for which the pIC50 on acid ceramidase (hACR) is 6.00 to 6.70. In data set [1], this compound displayed a solubility of 23.5 µg/mL (≈ 88.9 µM).

`CN1CCN(C2CCN(c3ncccc3-c3cn(C(=O)NCCC4CC4)cn3)CC2)CC1` [Example 55, N-(2-Cyclopropylethyl)-4-(2-(4-(4-methylpiperazin-1-yl)piperidin-1-yl)pyridin-3-yl)-1H-imidazole-1-carboxamide]: on acid ceramidase (hACR), the pIC50 was 6.00 to 6.70. In data set [1], the solubility is 41.5 µg/mL (≈ 94.8 µM).

As for `Cc1nc(-c2cn(C(=O)NCCC3CC3)cn2)co1` [Example 73, N-(2-Cyclopropylethyl)-4-(2-methyloxazol-4-yl)-1H-imidazole-1-carboxamide], the pIC50 on acid ceramidase (hACR) is 6.00 to 6.70. The solubility in data set [1] was determined as 26 µg/mL (≈ 99.9 µM).

Consider `O=C(NCCCC(F)(F)F)n1ccnc1Oc1ccccc1` [Example 178, 2-Phenoxy-N-(4,4,4-trifluorobutyl)-1H-imidazole-1-carboxamide], for which the pIC50 on acid ceramidase (hACR) is more than 6.70. Besides, in data set [1], the solubility was found to be 32 µg/mL (≈ 102 µM).

Take `O=C(NCCc1ccccc1)n1cnc(-c2ccccc2)c1` [Example 2, N-Phenethyl-4-phenyl-1H-imidazole-1-carboxamide]: on acid ceramidase (hACR), the pIC50 is more than 6.70. Besides, the solubility in data set [1] came to 0.2 µg/mL (≈ 0.686 µM).

`Cc1nc(-c2cccnc2)cn1C(=O)NCCC(C)C` [Example 49, N-iso-Pentyl-2-methyl-4-(pyridin-3-yl)-1H-imidazole-1-carboxamide]: the pIC50 on acid ceramidase (hACR) is more than 6.70. Besides, the solubility in data set [1] worked out at 7.9 µg/mL (≈ 29 µM).

For the compound `O=C(NCCc1ccccc1)n1cnc(-c2ccc(F)nc2)c1` [Example 30, 4-(6-Fluoropyridin-3-yl)-N-phenethyl-1N-imidazole-1-carboxamide], the pIC50 on acid ceramidase (hACR) is more than 6.70. Besides, the solubility in data set [1] was determined as 3.4 µg/mL (≈ 11 µM).

Take `CN1CCN(CCOc2nc(-c3ccccc3)cn2C(=O)NCC#Cc2ccccc2)CC1` [Example 202]: the pIC50 at acid ceramidase (hACR) was more than 6.70. This compound also registered a solubility in data set [1] of 7 µg/mL (≈ 15.8 µM).

For `CC(C)CNC(=O)n1cnc(-c2cccnc2)c1` [Example 35, N-iso-Butyl-4-(pyridin-3-yl)-1H-imidazole-1-carboxamide], on acid ceramidase (hACR), the pIC50 is less than 6.00. This compound also registered a solubility in data set [1] of 19.1 µg/mL (≈ 78.2 µM).

Turning to `COc1nc(C)cn1C(=O)NCCC1CC(F)(F)C1` [Example 166, N-(2-(3,3-Difluorocyclobutyl)ethyl)-2-methoxy-4-methyl-1H-imidazole-1-carboxamide], the pIC50 on acid ceramidase (hACR) was 6.00 to 6.70. This compound registered a solubility in data set [1] of 30 µg/mL (≈ 110 µM).

As to `O=C(NCCC1(C(F)(F)F)CC1)n1cnc(-c2cccnc2)c1` [Example 23, 4-(Pyridin-3-yl)-N-(2-(1-(trifluoromethyl)cyclopropyl)ethyl)-1H-imidazole-1-carboxamide], the pIC50 on acid ceramidase (hACR) was 6.00 to 6.70. This compound also had a solubility in data set [1] of 23.7 µg/mL (≈ 73.1 µM).

Consider `O=C(NCCC1CC1)n1cnc(-c2cccnc2)c1` [Example 22, N-(2-Cyclopropylethyl)-4-(pyridin-3-yl)-1H-imidazole-1-carboxamide], for which the negative logarithm of the IC50 (pIC50) on acid ceramidase (hACR) is 6.00 to 6.70. Also, the solubility in data set [1] was 23 µg/mL (≈ 89.7 µM).

`COc1nc(-c2ccccc2)cn1C(=O)NCCc1ccccc1` [Example 8, 2-Methoxy-N-phenethyl-4-phenyl-1H-imidazole-1-carboxamide]: on acid ceramidase (hACR), the pIC50 is 6.00 to 6.70. This compound also showed a solubility in data set [1] of 0.1 µg/mL (≈ 0.311 µM).

Take `COc1nccn1C(=O)NCCCCc1ccccc1` [Example 136, 2-Methoxy-N-(4-phenylbutyl)-1H-imidazole-1-carboxamide]: the pIC50 on acid ceramidase (hACR) was more than 6.70. In addition, in data set [1], the solubility came out at 22 µg/mL (≈ 80.5 µM).

Turning to `COc1nc(C2CC2)cn1C(=O)NCCc1ccccc1` [Example 130, 4-Cyclopropyl-2-methoxy-N-phenethyl-1H-imidazole-1-carboxamide], the pIC50 on acid ceramidase (hACR) is 6.00 to 6.70. Also, the concentration in solution in data set [1] (solubility) came to 12 µg/mL (≈ 42.1 µM).

On to `COc1nc(C)cn1C(=O)NCCCC(F)(F)F` [Example 139, 2-Methoxy-4-methyl-N-(4,4,4-trifluorobutyl)-1H-imidazole-1-carboxamide], for which, on acid ceramidase (hACR), the pIC50 was 6.00 to 6.70. This compound also yielded a solubility in data set [1] of 32 µg/mL (≈ 121 µM).

As for `CC(C)CNC(=O)n1cnc(C(C)(C)C)c1` [Example 87, 4-(tert-Butyl)-N-iso-butyl-1H-imidazole-1-carboxamide], the pIC50 at acid ceramidase (hACR) is 6.00 to 6.70. The same compound showed a solubility in data set [1] of 17 µg/mL (≈ 76.1 µM).

As for `CC(C)CCNC(=O)n1cnc(CC2CCN(C)CC2)c1` [Example 56, N-iso-Pentyl-4-((1-methylpiperidin-4-yl)methyl)-1H-imidazole-1-carboxamide], the pIC50 at acid ceramidase (hACR) was 6.00 to 6.70. The compound also registered a solubility in data set [1] of 21.7 µg/mL (≈ 74.2 µM).

For `O=C(NCCCC1(C(F)(F)F)CC1)n1ccnc1Oc1ccccc1` [Example 177, 2-Phenoxy-N-(3-(1-(trifluoromethyl)cyclopropyl)propyl)-1H-imidazole-1-carboxamide], on acid ceramidase (hACR), the negative logarithm of the IC50 (pIC50) was more than 6.70. The amount in solution in data set [1] (solubility) came to 8 µg/mL (≈ 22.6 µM).

On to `CN1CCC(c2cn(C(=O)NCCCC3(C(F)(F)F)CC3)cn2)CC1` [Example 174, 4-(1-Methylpiperidin-4-yl)-N-(3-(1-(trifluoromethyl)cyclopropyl)propyl)-1H-imidazole-1-carboxamide], for which the pIC50 at acid ceramidase (hACR) is more than 6.70. In data set [1], this compound registered a solubility of 25 µg/mL (≈ 69.8 µM).

As for `COc1nc(C)cn1C(=O)NCC#CCc1ccccc1` [Example 181, 2-Methoxy-4-methyl-N-(4-phenylbut-2-yn-1-yl)-1H-imidazole-1-carboxamide], the pIC50 on acid ceramidase (hACR) was more than 6.70. Besides, the solubility in data set [1] was found to be 22 µg/mL (≈ 77.6 µM).

With `COc1nc(C2CCC(F)(F)CC2)cn1C(=O)NCCC(C)C` [Example 111, 4-(4,4-Difluorocyclohexyl)-N-iso-pentyl-2-methoxy-1H-imidazole-1-carboxamide], the pIC50 at acid ceramidase (hACR) is 6.00 to 6.70. In data set [1], the solubility was 15 µg/mL (≈ 45.5 µM).

For the compound `N#Cc1ccc(-c2cn(C(=O)NCCc3ccccc3)cn2)cn1` [Example 28, 4-(6-Cyanopyridin-3-yl)-N-phenethyl-1H-imidazole-1-carboxamide], the pIC50 at acid ceramidase (hACR) is more than 6.70. The compound further showed a solubility in data set [1] of 5 µg/mL (≈ 15.8 µM).

Consider `CC(C)CC(C)NC(=O)n1cnc(C(C)(C)C)c1` (stereo not drawn) [Example 79, 4-(tert-Butyl)-N-(4-methylpentan-2-yl)-1H-imidazole-1-carboxamide], for which, at acid ceramidase (hACR), the pIC50 is more than 6.70. In addition, the concentration in solution in data set [1] (solubility) was 11 µg/mL (≈ 43.8 µM).

On to `CC(C)CCNC(=O)n1cnc(-c2ccncc2)c1` [Example 41, N-iso-Pentyl-4-(pyridin-4-yl)-1H-imidazole-1-carboxamide], for which, on acid ceramidase (hACR), the pIC50 is less than 6.00. In addition, the concentration in solution in data set [1] (solubility) was 22.1 µg/mL (≈ 85.6 µM).

For the compound `CCc1cn(C(=O)NCCC(C)C)c(OC)n1` [Example 77, 4-Ethyl-N-iso-pentyl-2-methoxy-1H-imidazole-1-carboxamide], on acid ceramidase (hACR), the negative-log IC50 (pIC50) was 6.00 to 6.70. Besides, the solubility in data set [1] worked out at 23 µg/mL (≈ 96.1 µM).

On to `O=C(NCCc1ccccc1)n1cnc(-c2ccncc2)c1` [Example 6, N-Phenethyl-4-(pyridin-4-yl)-1H-imidazole-1-carboxamide], for which, at acid ceramidase (hACR), the pIC50 was less than 6.00. This compound displayed a solubility in data set [1] of 23.9 µg/mL (≈ 81.8 µM).
